Source: patent publication US20230355553A1, “COMPOSITIONS AND METHODS FOR TREATING AND/OR PREVENTING OCULAR DISORDERS” (University of Virginia Patent Foundation, priority 2020, published 2023)

Assays:
[1] = test system: Alu RNA-induced RPE degeneration; assay: Alu RNA-induced RPE degeneration in mice, racemic fluoxetine vs enantiomers (fundus photos); type: in vivo, mouse; details: subretinal Alu RNA 180 ng, 172 ng drug intravitreous, 7 days
Procedure: In vitro transcribed Alu RNA (SEQ ID NO: 1; 180 ng) was injected into the subretinal space of mice and 172 ng racemic fluoxetine (TCI Chemicals, Portland, Oregon, United States of America) or enantiomers of fluoxetine (Santa Cruz Biotechnology, Inc., Dallas, Texas, United States of America) was injected into the vitreous humor. Fundus photos were captured 7 days later. […] Arrowheads show the extent and intensity of degeneration of the retinal pigmented epithelium (RPE).

caspase-1 activation [2] = assay: Western blot of Alu RNA-induced caspase-1 activation in mouse BMDMs; type: cell-based; details: Alu RNA-transfected mouse BMDMs, Fluoxetine 10 µM, n = 3 per group
Procedure: (§1) Cell culture. The human retinal pigment epithelial cell line ARPE-19 (ATCC) was maintained in Dulbecco’s Modified Eagle Medium (DMEM) supplemented with 10% fetal bovine serum (FBS) and standard antibiotics. Mouse bone marrow derived macrophages (BMDMs) were cultured in Iscove’s modified Dulbecco’s media (IMDM) with 10% FBS and 20% L929 supernatants. All cells were maintained at 37° C. in a 5% CO2 environment.
(§2) In order to test for the ability of fluoxetine to inhibit inflammasome activation, cells were transfected with (SEQ ID NO: 1) RNA or mock-transfected for 12 hour and pre-treated with Fluoxetine (10 µM) for 1 hour and again after Alu RNA (SEQ ID NO: 1) transfection. Supernatants were collected and were briefly spun down to remove floating cells. Proteins from the cell-free supernatant were precipitated by adding sodium deoxycholate (0.15% final) followed by adding TCA (7.2% final) and incubating on ice overnight. Samples were spun down at 13000 × g for 30 minutes and pellets were washed 2 times with ice-cold acetone. Precipitated proteins solubilized in 4X LDS Buffer with 2-mercaptoethanol were resolved by SDS-PAGE on NOVEX® brand Tris-Glycine Gels (Invitrogen Corporation, Carlsbad, California, United States of America) and transferred onto Immobilon-FL PVDF membranes (MilliporeSigma, Burlington, Massachusetts, United States of America). […]

caspase-1 activation [3] = assay: Western blot of Alu RNA-induced caspase-1 activation in human ARPE19 cells; type: cell-based; details: Alu RNA-transfected human ARPE19 cells, Fluoxetine 10 µM, n = 3 per group
Procedure: as §1, §2

secreted IL-1β = assay: ELISA of secreted cytokine from mouse bone marrow derived macrophages; type: cell-based; details: mouse BMDMs, B2 RNA (FIG. 3B), Fluoxetine 10 µM, P = 0.01
secreted IL-18 = assay: ELISA of secreted cytokine from human ARPE-19 cells; type: cell-based; details: Alu RNA (FIG. 4A), Fluoxetine 10 µM, P < 0.005
ASC specks = assay: ASC speck assay in BMDMs; type: cell-based, mouse; details: Alu RNA-transfected BMDMs; Fluoxetine 10 µM pretreatment 2 hours; n = 5; P = 0.006
Procedure: The ASC speck assay was employed as a measure of inflammasome activation. BMDMs seeded on chambered coverslips (30,000 cells/well) for 12 hours were pretreated with Fluoxetine (10 µM) or 0.1% DMSO (control) for 2 hours. Cells were transfected with Alu RNA (SEQ ID NO: 1) using LIPOFECTAMINE™ 3000 brand transfection reagent (Thermo Fisher Scientific, Waltham, Massachusetts, United States of America) for 12 hours. Coverslips were fixed with 2% paraformaldehyde (15 minutes at room temperature), washed with PBS, permeabilized, blocked with blocking buffer (PBS, 0.1% TX-100, 5% normal goat serum; 1 hour at 4° C.) and incubated with anti-ASC antibody (Adipogen; 1:300) with blocking buffer. Nuclei were stained with DAPI. Slides mounted using FLUOROMOUNT-G® brand mounting medium (SouthernBiotech, Birmingham, Alabama, United States of America) were imaged by confocal microscopy (Nikon A1R). The numbers of specks per 40x field were compared by two-tailed Student’s t test.

[4] = test system: Alu RNA-induced RPE degeneration; assay: Alu RNA-induced RPE degeneration in mice (ZO-1-stained RPE flat mounts); type: in vivo, mouse; details: subretinal Alu RNA 300 ng, drug 1 mM in 0.5 µl intravitreous 24 hours before and immediately after, 7 days
Procedure: Animals. Animal experiments were approved by the University of Virginia (UVA) Institutional Animal Care and Use Committee. C57BL/6J mice (The Jackson Laboratory) were anesthetized with ketamine hydrochloride and xylazine.
The ability of various antidepressant drugs to inhibit Alu RNA (SEQ ID NO: 1) induced RPE degeneration was tested in mice. In vitro transcribed Alu RNA (SEQ ID NO: 1; 300 ng in 1 µl) or vehicle control (PBS) were injected subretinally into mice. Fluoxetine (FLX), Citalopram (CIT), Paroxetine (PAR), Sertraline (SER), Escitalopram (ESC), Venlafaxine (VEN), Imipramine (IMI), Amitriptyline (AMI), Agomelatine (AGO; all from Cayman Chemical Company, Ann Arbor, Michigan, United States of America; 1 mM in 0.5 µl), or PBS was injected into the vitreous humor 24 hours before and immediately after Alu RNA (SEQ ID NO: 1) injections. Animals were euthanized 7 days after Alu RNA (SEQ ID NO: 1) injection, and the eyes were enucleated.
RPE health was assessed by immunofluorescence staining of zonula occludens-1 (ZO-1) on RPE flat mounts. Flat mounts were fixed with 2% paraformaldehyde, stained with rabbit polyclonal antibodies against mouse ZO-1 (Invitrogen; 1:100), and visualized with Alexa-594 (Invitrogen), and imaged using an A1R Nikon confocal microscope. Images were graded as healthy or degenerated in masked fashion. […]

dry macular degeneration = assay: Health insurance claims analysis (PearlDiver database) of dry macular degeneration among patients with depression; type: in vivo, human
Source text: Data on patients with commercial health insurance was obtained from the PearlDiver Patient Records Database (Colorado Springs, Colorado, United States of America), which captures health care claims and medication usage for persons in the Humana network from 2007 to 2017. These de-identified data are Health Insurance Portability and Accountability Act-compliant and were deemed by the University of Virginia Institutional Review Board (IRB; University of Virginia, Charlottesville, United States of America) as exempt from IRB approval requirements.
Patients were included in the analysis if they had continuous enrollment in the plan for at least 1 year and had at least 2 medical claims of Depression and were at least 50 years of age at baseline. Individuals with pre-existing Dry Macular Degeneration (1 or more medical claims prior to diagnosis of Depression) were excluded. Disease claims were identified by International Classification of Diseases (ICD)-9-CM and ICD-10-CM codes.
Individuals were classified as receiving Fluoxetine if they filled one or more outpatient pharmacy prescriptions for generic or brand versions, either in sole form or as a combination medication, as identified by National Drug Codes of the Food and Drug Administration (FDA) of the United States.
Time to initial diagnosis of Dry Macular Degeneration, which was confirmed by 2 or more medical claims, was the dependent variable for this analysis.
To analyze the risk of Dry Macular Degeneration between those exposed to Fluoxetine and those not exposed to Fluoxetine, an adjusted Cox proportional hazards model was fit. The adjusted model included as covariates age, gender, race, smoking, and body mass index.
The event rates of dry macular degeneration in the general population and in the depression cohort are shown. Fluoxetine use was associated with a crude risk reduction of 28%. P < 0.0001 by χ2 test. Fluoxetine use was associated with a reduction in the hazard of developing dry macular degeneration. P < 0.0001 by likelihood ratio test.

[5] = test system: amyloid beta-induced RPE degeneration; assay: Oligomerized amyloid beta-induced RPE degeneration in mice (fundus photos); type: in vivo, mouse; details: subretinal oligomerized amyloid beta, fluoxetine 172 ng intravitreous, 7 days
Procedure: The ability of fluoxetine to inhibit RPE degeneration induced by oligomerized amyloid beta was also tested. Oligomerized amyloid beta (0.6 micromoles; AnaSpec Inc., Fremont, California, United States of America) was injected into the subretinal space and fluoxetine (172 ng; TCI Chemicals) was injected into the vitreous humor. Fundus photos were captured 7 days later.

cataract formation = assay: Cataract formation after administration of fluoxetine preparations to the eye; type: in vivo

| cataract formation, share of subjects (cataract formation) | Compound | RPE degeneration extent and intensity (fundus photos) [1] | caspase-1 activation (cleavage of pro-caspase-1 into active caspase-1) (caspase-1 activation [2]) | caspase-1 activation (cleavage of pro-caspase-1 into active caspase-1) (caspase-1 activation [3]) | secreted IL-1β (FIG. 3B) (secreted IL-1β) | secreted IL-18 (FIG. 4A) (secreted IL-18) | ASC speck formation (number of specks per 40x field) (ASC specks) | RPE degeneration (percentage of eyes with RPE degeneration) [4] | Hazard Ratio (95% Confidence Interval) of developing dry macular degeneration (dry macular degeneration; Fluoxetine Use Yes vs. No, multivariate Cox regression corrected for age, gender, race, smoking, body mass index) | crude risk reduction of dry macular degeneration (dry macular degeneration; Fluoxetine use vs no use, P < 0.0001 by χ2 test) [%] | rate of developing dry macular degeneration (Kaplan-Meier) (dry macular degeneration; Fluoxetine use, log rank test P < 0.0001 (FIG. 7)) | Event Rate of dry macular degeneration (dry macular degeneration; Fluoxetine users (Ever), depression cohort) [%] | Dry Macular Degeneration (#) (dry macular degeneration; Fluoxetine users (Ever), depression cohort, age at least 50, 84,603 total patients) | RPE degeneration extent and intensity (fundus photos) [5] |
| --- | --- | --- | --- | --- | --- | --- | --- | --- | --- | --- | --- | --- | --- | --- |
| – | CNCC[C@@H](Oc1ccc(C(F)(F)F)cc1)c1ccccc1 [R-fluoxetine] | more complete protection | – | – | – | – | – | – | – | – | – | – | – | – |
| up to 50% | CNCCC(Oc1ccc(C(F)(F)F)cc1)c1ccccc1 (racemic) [Fluoxetine, N-methyl-3-phenyl-3-[4-(trifluoromethyl)phenoxy]propan-1-amine] | reduced the RPE degeneration extent and intensity, although the protection was partial | reduced | reduced | statistically significantly reduced | statistically significantly reduced | inhibited | significantly reduced | 0.590 (0.565, 0.616) | 28 | slower rate | 3.5 | 3,000 | reduced the RPE degeneration extent and intensity |
| – | CNCC[C@H](Oc1ccc(C(F)(F)F)cc1)c1ccccc1 [S-fluoxetine] | more complete protection | – | – | – | – | – | – | – | – | – | – | – | – |
